Measured values published in US7632506B2, “Identification of new NY-ESO-1 epitopes recognized by CD4+ T-cells” (Ludwig Institute for Cancer Research, priority 2005, dated 2009).

Key:
[1] = system: CD4+ T cell clones NW2337-CD4-1 and NW2337-CD4-10; assay: Peptide titration ELISPOT assay with overlapping NY-ESO-1 peptides; assay type: cell-based, human; details: peptide 10 μM to 0.1 nM pulsed onto autologous EBV-B-cells
Protocol: (§1) The CD4^+ T cells were restimulated weekly with 1 μg/ml of the peptide being used. On day 12, each CD4^+ culture was assayed for NY-ESO-1 peptide recognition, using the ELISPOT assay of lager, et al., Proc. Natl. Acad. Sci. USA, 97(9):4760-4765 (2000), incorporated by reference. To elaborate on this procedure, flat-bottomed, 96-well nitrocellulose plates were coated with 5 μg/ml of anti-interferon-gamma antibody and incubated overnight at 4° C. After washing with PBS, plates were blocked with 10% human serum (HS) for 1 hour at 37° C. Depending on the effector:target ratio used, various numbers of presensitized CD4^+ T-cells were added to each well along with 5×10^4 autologous peptide pulsed EBV transfected B cells (“EBV-B cells”) serving as target cells and incubated for 16 hours at 37° C. in TCM without IL-2. Plates were then washed extensively (6 times with a solution of 0.05% Tween 20/PBS), and biotinylated anti-interferon-gamma detection antibody was added at a concentration of 0.5 μg/ml. After incubation for 2 h at 37° C., plates were washed and incubated with ABC-AP Vectastain for 1 hour. Plates were washed again and developed with substrate (BCIP/NPT) until blue spots were visible. The number of blue spots/well represented the proportion of NY-ESO-1 specific CD4^+ T-cells/well was finally counted under the microscope.
To further identify the exact epitope required for CD4^+ T cell recognition by these two CD4^+ T cell clones, a peptide titration assay was performed using overlapping NY-ESO-1 peptides (FIG. 2) at concentrations between 10 μM and 0.1 nM, pulsed onto autologous EBV-B-cells and tested in ELISPOT assays (FIG. 3).

[2] = system: NW2337 CD4+ T cells; assay: Cytokine ELISPOT assays (IFNγ, TNFα, IL4, IL10) of NW2337 CD4+ T cells; assay type: cell-based, human
Description: All ELISPOT assay described, supra were designed to detect IFN-γ secretion by the T cell clones following specific antigen stimulation. To determine the phenotype of the NY-ESO-1 specific CD4^+ T cell clones from patient NW2337, additional ELISPOT assays were designed to detect additional cytokines.
The NW2337 CD4^+ T cells were stimulated with either NY-ESO-1 p49-66 and p55-72 peptides and T cells secretion of IFNγ, TNFα, IL4 and IL10measured by ELISPOT assay. […] IL4 and IL10 was not secreted by any of the NY-ESO-1 specific CD4^+ T-cell clones tested following stimulation with NY-ESO-1 p49-66 and p55-72 peptides.

[3] = target: T1, HLA-DQB1 03011 (Homo sapiens, UniProt P01909+P01920); assay: ELISPOT with peptide pulsed allogeneic EBV-B-cells of known HLA class II type (HLA restriction); assay type: cell-based; details: only shared allele of the recognized peptide pulsed allogenic EBV-B cell lines
T1 construct: peptide pulsed allogeneic EBV-B-cells with known HLA class II types as stimulator cells; endogenous in cells; host or cells: allogeneic patient-derived EBV-transformed B-cell lines (NW-2078, NW-2081, NW-2395, NW-2234, NW-2337, NW-1100, MZ-1257)
T1 sequence (P01920 33-261, other chains not shown): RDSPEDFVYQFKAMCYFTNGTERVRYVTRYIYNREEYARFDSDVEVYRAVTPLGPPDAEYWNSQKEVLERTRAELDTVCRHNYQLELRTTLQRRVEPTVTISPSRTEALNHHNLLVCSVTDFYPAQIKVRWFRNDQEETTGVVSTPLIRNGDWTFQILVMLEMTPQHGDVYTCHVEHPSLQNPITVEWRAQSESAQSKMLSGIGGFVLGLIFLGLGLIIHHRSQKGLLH
Protocol: In order to determine the HLA molecule to which the novel NY-ESO-1 peptides described above bind, the NW2337 CD4^+ T-cell clones NW2337-CD4-1 and NW2337-CD4-10, were tested in ELISPOT assays using a range of peptide pulsed allogeneic EBV-B-cells with known HLA class II types as stimulator cells as indicated in the following Table. The EBV-B-cell lines were HLA typed using standard methods as described above.
The NW2337-CD4-1 clone recognized allogenic peptide pulsed EBV-B cells from patients NW-2078, NW-2081, NW-2395, NW-2234, NW-2337, NW-1100 and MZ-1257. The allogenic EBV-B cells were recognized by the T cells when pulsed exogenously with either the NY-ESO-1 p49-66 or p55-72 as observed with autologous EBV-B cells described above. […] None of the EBV-B-cells lines that were not recognized by the T cells expressed this MHC allele. […] Again the NY-ESO-1 positive MZ-1257 EBV-B-cell line was recognized with or without exogenous peptide.

[4] = system: CD4+ T cell clones NW2337-CD4-1 and NW2337-CD4-10; assay: 51Cr release assay with peptide-pulsed EBV-B target cells; assay type: cell-based, human; details: for recognition by clone NW2337-CD4-10: clone generated with p55-72
Protocol: In these experiments, exemplary clones NY-ESO-1 p49-66 specific CD4^+ T cell clone NW2337-CD4-1 and NY-ESO-1 p55-72 specific CD4^+ T cell clone NW2337-CD4-10 were characterized in ^51Chromium (^51Cr) release assays using peptides overlapping the sequence of each stimulation peptide. Standard ^51Cr release assay methods were used. Briefly, autologous EBV B cell target cells were labeled with 100 μCi Na2^51CrO4 for 2 hours, and pulsed with 18 mer or 20 mer NY-ESO-1 peptides (10 μg/ml) for 1 hour. Then, 1×10^3 target cells/well were incubated in 96 V- bottom microwell plates with effector cells at different E/T ratios for 4 h at 37° C. ^51Cr release was measured in the supernatant and the specific cytotoxicity was calculated using the standard methods. Polyclonal T-cell populations were preincubated with unlabeled K562 cells as competitors at a concentration of 40:1 in order to block non-specific effector reactions.
These experiments confirmed recognition of naturally presented NY-ESO-1 epitopes by the CD4+ T-cell clones.

[5] = system: CD4+ T cells; assay: IFN-γ ELISPOT of CD4+ T cells presensitized with overlapping NY-ESO-1 18 mer peptides; assay type: cell-based, human; details: patient NW2337, limiting dilution
[6] = system: CD4+ T cells; assay: as above; assay type: cell-based, human; details: for Patient T cells 1 / Patient T cells 2 / Patient T cells 3: IFN-γ ELISPOT; for Patient T cells 1: day 12, CD4+ T cells of patient 1, autologous peptide pulsed EBV-B cells as targets; for Patient T cells 2: day 12, CD4+ T cells of patient 2, autologous peptide pulsed EBV-B cells as targets; for Patient T cells 3: day 12, CD4+ T cells of patient 3, autologous peptide pulsed EBV-B cells as targets; for patients whose CD4+ T cells recognized the peptide: three patients tested
Protocol: Peripheral blood mono-nuclear cells (“PBMCs”) were separated from heparinized blood via Ficoll density gradient separation, using standard, art recognized techniques. Once this was done, the CD4^+ and CD8^+ T cells were separated from each other using magnetic cell sorting techniques which are well known to the art, producing CD4^+, CD8^+, and CD4^−/CD8^− cell populations.
A series of 18 mer peptides were prepared from the amino acid sequence of NY-ESO-1 as set forth in, e.g., U.S. Pat. No. 5,804,381, incorporated by reference. The peptides were designed to cover the entire sequence of NY-ESO-1, and to provide overlap.
The peptides were then individually pulsed to antigen presenting cells (“APCs”). These were CD4^−/CD8^− PBMCs taken from the same subjects who had provided the CD4^+ and CD8^+ cells. These APCs were irradiated with 3000 rads, and then pulsed with one of the peptides, at a concentration of 10 μg/ml, for 1 hour, in serum free medium. These APCs were then washed, and added to the CD4^+ cells. In the pulsing experiments, the peptides were solubilized in DMSO (100%) and then diluted with PBS to a final concentration of 10% DMSO. The CD4^+ cells had been cultured in a medium of L-arginine (242 mg/l), L-asparagene (50 mg/l), L-glutamine (300 mg/l), penicillin (10 IU/ml), streptomycin (100 μg/ml), 1% non-essential amino acids, 10% HS, and 10 ng/ml of recombinant human IL-2.
as §1
The EBV-B-cells were generated from each patients' PBMC following standard methods and maintained in RPMI 1640 medium supplemented with 10 mM Hepes buffer, L-arginine (242 mg/l), L-asparagine (50mg/l), L-glutamine (300 mg/l), penicillin (10 IU/ml), streptomycin (100 μg/ml), 1% non-essential amino acids, and 10% FCS. […] PBMC's or EBV-B-cells were molecularly typed for HLA expression using standard procedures.

[7] = autologous EBV B cells pulsed with peptide 10 μg/ml

For “61-80: overlapping 20 mer NY-ESO-1 peptide, amino acids 61-80 (PRGPHGGAASGLNGCCRCGA; UniProt P78358 61-80, looked up, fragment) [Peptide 61-80]”, the “recognition by clone NW2337-CD4-10” value [1] was “able to recognize”.
“p51-70: overlapping 20 mer NY-ESO-1 peptide, amino acids 51-70 (ARASGPGGGAPRGPHGGAAS; UniProt P78358 51-70, looked up, fragment)” was tested, and the “recognition by clone NW2337-CD4-1” value [1] was “recognized”.
For “P49-66: synthetic 18 mer peptide, amino acids 49-66 of NY-ESO-1 (GAARASGPGGGAPRGPHG; UniProt P78358 49-66, looked up, fragment) [Peptide P49-66]”, the “IFN-γ secretion by stimulated T cell clones” value [2] was “produced”, the “IL4 secretion by stimulated T cell clones” value [2] was “not secreted” and the “IL10 secretion by stimulated T cell clones” value [2] was “not secreted”. For the same substance, the “TNF-α secretion by stimulated T cell clones” value [2] was “produced”, the “MHC class II allele presenting the peptide to NW2337-CD4-1 T cells” value [3] was “HLA-DQB1 03011” and the “lysis of peptide pulsed autologous NW-2337-EBV B-cell lines by clones NW-2337-CD4-1 and -4” value [4] was “efficiently lysed”. The “recognition by clone NW2337-CD4-1” value ([4]; autologous EBV B cells pulsed with peptide 10 μg/ml, clone generated with p49-66) was “recognized”, the “recognition by clone NW2337-CD4-10” value [4, 7] was “did not crossreact” and the “CD4+ T-cell clones generated by stimulation with peptide” value [5] was 27. The “Patient T cells 1” value [6] was “+ (+ indicates >50 spots (all + scores indicated were >100 spots))”, the “Patient T cells 2” value [6] was “+ (+ indicates >50 spots (all + scores indicated were >100 spots))” and the “Patient T cells 3” value [6] was “+ (+ indicates >50 spots (all + scores indicated were >100 spots))”. The “patients whose CD4+ T cells recognized the peptide” value [6] was “all three patients” and the “recognition by clone NW2337-CD4-1” value [1] was “recognized”.
“P73-90: synthetic 18 mer peptide, amino acids 73-90 of NY-ESO-1 (NGCCRCGARGPESRLLEF; UniProt P78358 73-90, looked up, fragment) [Peptide P73-90]” was tested, and the “Patient T cells 1” value [6] was “− (− indicates <50 spots)”, the “Patient T cells 2” value [6] was “− (− indicates <50 spots)” and the “Patient T cells 3” value [6] was “− (− indicates <50 spots)”.
In the case of “p109-126: synthetic 18 mer peptide, amino acids 109-126 of NY-ESO-1 (LAQDAPPLPVPGVLLKEF; UniProt P78358 109-126, looked up, fragment)”, the “Patient T cells 1” value [6] is reported as “− (− indicates <50 spots)”, the “Patient T cells 2” value [6] is reported as “− (− indicates <50 spots)” and the “Patient T cells 3” value [6] is reported as “− (− indicates <50 spots)”.
In the case of “p127-144: synthetic 18 mer peptide, amino acids 127-144 of NY-ESO-1 (TVSGNILTIRLTAADHRQ; UniProt P78358 127-144, looked up, fragment)”, the “Patient T cells 1” value [6] is reported as “− (− indicates <50 spots)”, the “Patient T cells 2” value [6] is reported as “− (− indicates <50 spots)” and the “Patient T cells 3” value [6] is reported as “− (− indicates <50 spots)”.
In the case of “P61-78: synthetic 18 mer peptide, amino acids 61-78 of NY-ESO-1 (PRGPHGGAASGLNGCCRC; UniProt P78358 61-78, looked up, fragment) [Peptide P61-78]”, the “recognition by clone NW2337-CD4-10” value [4, 7] is reported as “crossreacted”, the “Patient T cells 1” value [6] is reported as “+ (+ indicates >50 spots (all + scores indicated were >100 spots))” and the “Patient T cells 2” value [6] is reported as “+ (+ indicates >50 spots (all + scores indicated were >100 spots))”. The “Patient T cells 3” value [6] was “+ (+ indicates >50 spots (all + scores indicated were >100 spots))”, the “patients whose CD4+ T cells recognized the peptide” value [6] was “all three patients” and the “recognition by clone NW2337-CD4-10” value [1] was “able to recognize”.
